In ChEMBL document CHEMBL1131152, “In vitro and in vivo activities of oligodeoxynucleotide-based thrombin inhibitors containing neutral formacetal linkages” (J Med Chem, 1998):

Target: Prothrombin (Homo sapiens) (UniProt P00734)
Test: Relative prothrombin time was determined as the activity of the test ODN (oligodeoxynucleotide) relative to that of GS-522

Compound	Relative PT
Cc1cn([C@H]2C[C@H](OCOC[C@H]3O[C@@H](n4cnc5c(=O)nc(N)[nH]c54)C[C@@H]3OP(=O)(O)OC[C@H]3O[C@@H](n4cc(C)c(=O)[nH]c4=O)C[C@@H]3OP(=O)(O)OC[C@H]3O[C@@H](n4cnc5c(=O)nc(N)[nH]c54)C[C@@H]3OP(=O)(O)OC[C@H]3O[C@@H](n4cnc5c(=O)[nH]c(=N)[nH]c54)C[C@@H]3OP(=O)(O)OC[C@H]3O[C@@H](n4cc(C)c(=O)[nH]c4=O)C[C@@H]3OP(=O)(O)OC[C@H]3O[C@@H](n4cc(C)c(=O)[nH]c4=O)C[C@@H]3OP(=O)(O)OC[C@H]3O[C@@H](n4cnc5c(=O)[nH]c(=N)[nH]c54)C[C@@H]3OP(=O)(O)OC[C@H]3O[C@@H](n4cnc5c(=O)nc(N)[nH]c54)C[C@@H]3O)[C@@H](COP(=O)(O)O[C@H]3C[C@H](n4cnc5c(=O)[nH]c(=N)[nH]c54)O[C@@H]3COP(=O)(O)O[C@H]3C[C@H](n4cnc5c(=O)nc(N)[nH]c54)O[C@@H]3COP(=O)(O)O[C@H]3C[C@H](n4cc(C)c(=O)[nH]c4=O)O[C@@H]3COP(=O)(O)O[C@H]3C[C@H](n4cc(C)c(=O)[nH]c4=O)O[C@@H]3COP(=O)(O)O[C@H]3C[C@H](n4cnc5c(=O)nc(N)[nH]c54)O[C@@H]3COP(=O)(O)O[C@H]3C[C@H](n4cnc5c(=O)nc(N)[nH]c54)O[C@@H]3COP(=O)(O)O)O2)c(=O)[nH]c1=O	0.8
Cc1cn([C@H]2C[C@H](OCOC[C@H]3O[C@@H](n4cnc5c(=O)[nH]c(=N)[nH]c54)C[C@@H]3OP(=O)(O)OC[C@H]3O[C@@H](n4cnc5c(=O)nc(N)[nH]c54)C[C@@H]3O)[C@@H](COP(=O)(O)O[C@H]3C[C@H](n4cc(C)c(=O)[nH]c4=O)O[C@@H]3COP(=O)(O)O[C@H]3C[C@H](n4cnc5c(=O)[nH]c(=N)[nH]c54)O[C@@H]3COP(=O)(O)O[C@H]3C[C@H](n4cnc5c(=O)nc(N)[nH]c54)O[C@@H]3COP(=O)(O)O[C@H]3C[C@H](n4cc(C)c(=O)[nH]c4=O)O[C@@H]3COP(=O)(O)O[C@H]3C[C@H](n4cnc5c(=O)nc(N)[nH]c54)O[C@@H]3COP(=O)(O)O[C@H]3C[C@H](n4cc(C)c(=O)[nH]c4=O)O[C@@H]3COP(=O)(O)O[C@H]3C[C@H](n4cnc5c(=O)[nH]c(=N)[nH]c54)O[C@@H]3COP(=O)(O)O[C@H]3C[C@H](n4cnc5c(=O)nc(N)[nH]c54)O[C@@H]3COP(=O)(O)O[C@H]3C[C@H](n4cc(C)c(=O)[nH]c4=O)O[C@@H]3COCO[C@H]3C[C@H](n4cc(C)c(=O)[nH]c4=O)O[C@@H]3COP(=O)(O)O[C@H]3C[C@H](n4cnc5c(=O)nc(N)[nH]c54)O[C@@H]3COP(=O)(O)O[C@H]3C[C@H](n4cnc5c(=O)nc(N)[nH]c54)O[C@@H]3COP(=O)(O)O)O2)c(=O)[nH]c1=O	0.6
Cc1cn([C@H]2C[C@H](OP(=O)(O)OC[C@H]3O[C@@H](n4cnc5c(=O)nc(N)[nH]c54)C[C@@H]3OP(=O)(O)OC[C@H]3O[C@@H](n4cnc5c(=O)[nH]c(=N)[nH]c54)C[C@@H]3OP(=O)(O)OC[C@H]3O[C@@H](n4cc(C)c(=O)[nH]c4=O)C[C@@H]3OP(=O)(O)OC[C@H]3O[C@@H](n4cnc5c(=O)[nH]c(=N)[nH]c54)C[C@@H]3OP(=O)(O)OC[C@H]3O[C@@H](n4cc(C)c(=O)[nH]c4=O)C[C@@H]3OP(=O)(O)OC[C@H]3O[C@@H](n4cnc5c(=O)nc(N)[nH]c54)C[C@@H]3OCOC[C@H]3O[C@@H](n4cnc5c(=O)[nH]c(=N)[nH]c54)C[C@@H]3OP(=O)(O)OC[C@H]3O[C@@H](n4cc(C)c(=O)[nH]c4=O)C[C@@H]3OP(=O)(O)OC[C@H]3O[C@@H](n4cc(C)c(=O)[nH]c4=O)C[C@@H]3OP(=O)(O)OC[C@H]3O[C@@H](n4cnc5c(=O)[nH]c(=N)[nH]c54)C[C@@H]3OCOC[C@H]3O[C@@H](n4cnc5c(=O)nc(N)[nH]c54)C[C@@H]3O)[C@@H](COP(=O)(O)O[C@H]3C[C@H](n4cc(C)c(=O)[nH]c4=O)O[C@@H]3COP(=O)(O)O[C@H]3C[C@H](n4cnc5c(=O)nc(N)[nH]c54)O[C@@H]3COP(=O)(O)O[C@H]3C[C@H](n4cnc5c(=O)[nH]c(=N)[nH]c54)O[C@@H]3COP(=O)(O)O)O2)c(=O)[nH]c1=O	0.8
Cc1cn([C@H]2C[C@H](OP(=O)(O)OC[C@H]3O[C@@H](n4cnc5c(=O)nc(N)[nH]c54)C[C@@H]3OP(=O)(O)OC[C@H]3O[C@@H](n4cnc5c(=O)[nH]c(=N)[nH]c54)C[C@@H]3OP(=O)(O)OC[C@H]3O[C@@H](n4cc(C)c(=O)[nH]c4=O)C[C@@H]3OP(=O)(O)OC[C@H]3O[C@@H](n4cnc5c(=O)nc(N)[nH]c54)C[C@@H]3OP(=O)(O)OC[C@H]3O[C@@H](n4cc(C)c(=O)[nH]c4=O)C[C@@H]3OP(=O)(O)OC[C@H]3O[C@@H](n4cnc5c(=O)nc(N)[nH]c54)C[C@@H]3OCOC[C@H]3O[C@@H](n4cnc5c(=O)[nH]c(=N)[nH]c54)C[C@@H]3OP(=O)(O)OC[C@H]3O[C@@H](n4cc(C)c(=O)[nH]c4=O)C[C@@H]3OP(=O)(O)OC[C@H]3O[C@@H](n4cc(C)c(=O)[nH]c4=O)C[C@@H]3OP(=O)(O)OC[C@H]3O[C@@H](n4cnc5c(=O)[nH]c(=N)[nH]c54)C[C@@H]3OP(=O)(O)OC[C@H]3O[C@@H](n4cnc5c(=O)nc(N)[nH]c54)C[C@@H]3O)[C@@H](COP(=O)(O)O[C@H]3C[C@H](n4cc(C)c(=O)[nH]c4=O)O[C@@H]3COP(=O)(O)O[C@H]3C[C@H](n4cnc5c(=O)nc(N)[nH]c54)O[C@@H]3COCO[C@H]3C[C@H](n4cnc5c(=O)nc(N)[nH]c54)O[C@@H]3COP(=O)(O)O)O2)c(=O)[nH]c1=O	0.7
Cc1cn([C@H]2C[C@H](OCOC[C@H]3O[C@@H](n4cnc5c(=O)nc(N)[nH]c54)C[C@@H]3OP(=O)(O)OC[C@H]3O[C@@H](n4cnc5c(=O)[nH]c(=N)[nH]c54)C[C@@H]3OP(=O)(O)OC[C@H]3O[C@@H](n4cc(C)c(=O)[nH]c4=O)C[C@@H]3OCOC[C@H]3O[C@@H](n4cc(C)c(=O)[nH]c4=O)C[C@@H]3OP(=O)(O)OC[C@H]3O[C@@H](n4cnc5c(=O)[nH]c(=N)[nH]c54)C[C@@H]3OP(=O)(O)OC[C@H]3O[C@@H](n4cnc5c(=O)nc(N)[nH]c54)C[C@@H]3O)[C@@H](COP(=O)(O)O[C@H]3C[C@H](n4cnc5c(O)nc(=N)[nH]c54)O[C@@H]3COP(=O)(O)O[C@H]3C[C@H](n4cc(C)c(=O)[nH]c4=O)O[C@@H]3COP(=O)(O)O[C@H]3C[C@H](n4cnc5c(=O)[nH]c(=N)[nH]c54)O[C@@H]3COP(=O)(O)O[C@H]3C[C@H](n4cnc5c(=O)nc(N)[nH]c54)O[C@@H]3COP(=O)(O)O[C@H]3C[C@H](n4cc(C)c(=O)[nH]c4=O)O[C@@H]3COCO[C@H]3C[C@H](n4cc(C)c(=O)[nH]c4=O)O[C@@H]3COP(=O)(O)O[C@H]3C[C@H](n4cnc5c(=O)nc(N)[nH]c54)O[C@@H]3COP(=O)(O)O[C@H]3C[C@H](n4cnc5c(=O)[nH]c(=N)[nH]c54)O[C@@H]3COP(=O)(O)O)O2)c(=O)[nH]c1=O	1.1
Cc1cn([C@H]2C[C@H](OP(=O)(O)OC[C@H]3O[C@@H](n4cnc5c(=O)[nH]c(=N)[nH]c54)C[C@@H]3OP(=O)(O)OC[C@H]3O[C@@H](n4cc(C)c(=O)[nH]c4=O)C[C@@H]3OP(=O)(O)OC[C@H]3O[C@@H](n4cnc5c(=O)nc(N)[nH]c54)C[C@@H]3OP(=O)(O)OC[C@H]3O[C@@H](n4cnc5c(=O)[nH]c(=N)[nH]c54)C[C@@H]3OP(=O)(O)OC[C@H]3O[C@@H](n4cc(C)c(=O)[nH]c4=O)C[C@@H]3OP(=O)(O)OC[C@H]3O[C@@H](n4cc(C)c(=O)[nH]c4=O)C[C@@H]3OP(=O)(O)OC[C@H]3O[C@@H](n4cnc5c(=O)[nH]c(=N)[nH]c54)C[C@@H]3OP(=O)(O)OC[C@H]3O[C@@H](n4cnc5c(=O)nc(N)[nH]c54)C[C@@H]3O)[C@@H](COCO[C@H]3C[C@H](n4cnc5c(=O)[nH]c(=N)[nH]c54)O[C@@H]3COP(=O)(O)O[C@H]3C[C@H](n4cnc5c(=O)nc(N)[nH]c54)O[C@@H]3COP(=O)(O)O[C@H]3C[C@H](n4cc(C)c(=O)[nH]c4=O)O[C@@H]3COP(=O)(O)O[C@H]3C[C@H](n4cc(C)c(=O)[nH]c4=O)O[C@@H]3COP(=O)(O)O[C@H]3C[C@H](n4cnc5c(=O)nc(N)[nH]c54)O[C@@H]3COP(=O)(O)O[C@H]3C[C@H](n4cnc5c(=O)nc(N)[nH]c54)O[C@@H]3COP(=O)(O)O)O2)c(=O)[nH]c1=O	0.8
Cc1cn([C@H]2C[C@H](OCOC[C@H]3O[C@@H](n4cnc5c(=O)nc(N)[nH]c54)C[C@@H]3OP(=O)(O)OC[C@H]3O[C@@H](n4cnc5c(=O)[nH]c(=N)[nH]c54)C[C@@H]3OP(=O)(O)OC[C@H]3O[C@@H](n4cc(C)c(=O)[nH]c4=O)C[C@@H]3OP(=O)(O)OC[C@H]3O[C@@H](n4cnc5c(=O)[nH]c(=N)[nH]c54)C[C@@H]3OP(=O)(O)OC[C@H]3O[C@@H](n4cc(C)c(=O)[nH]c4=O)C[C@@H]3OP(=O)(O)OC[C@H]3O[C@@H](n4cnc5c(=O)nc(N)[nH]c54)C[C@@H]3OP(=O)(O)OC[C@H]3O[C@@H](n4cnc5c(=O)[nH]c(=N)[nH]c54)C[C@@H]3OP(=O)(O)OC[C@H]3O[C@@H](n4cc(C)c(=O)[nH]c4=O)C[C@@H]3OP(=O)(O)OC[C@H]3O[C@@H](n4cc(C)c(=O)[nH]c4=O)C[C@@H]3OCOC[C@H]3O[C@@H](n4cnc5c(=O)[nH]c(=N)[nH]c54)C[C@@H]3OP(=O)(O)OC[C@H]3O[C@@H](n4cnc5c(=O)nc(N)[nH]c54)C[C@@H]3O)[C@@H](COP(=O)(O)O[C@H]3C[C@H](n4cc(C)c(=O)[nH]c4=O)O[C@@H]3COP(=O)(O)O[C@H]3C[C@H](n4cnc5c(=O)nc(N)[nH]c54)O[C@@H]3COP(=O)(O)O[C@H]3C[C@H](n4cnc5c(=O)[nH]c(=N)[nH]c54)O[C@@H]3COP(=O)(O)O)O2)c(=O)[nH]c1=O	0.3
Cc1cn([C@H]2C[C@H](OCOC[C@H]3O[C@@H](n4cnc5c(=O)nc(N)[nH]c54)C[C@@H]3OP(=O)(O)OC[C@H]3O[C@@H](n4cnc5c(=O)[nH]c(=N)[nH]c54)C[C@@H]3OP(=O)(O)OC[C@H]3O[C@@H](n4cc(C)c(=O)[nH]c4=O)C[C@@H]3OP(=O)(O)OC[C@H]3O[C@@H](n4cc(C)c(=O)[nH]c4=O)C[C@@H]3O[PH](O)(O)OC[C@H]3O[C@@H](n4cnc5c(=O)[nH]c(=N)[nH]c54)C[C@@H]3OP(=O)(O)OC[C@H]3O[C@@H](n4cnc5c(=O)nc(N)[nH]c54)C[C@@H]3O)[C@@H](COP(=O)(O)O[C@H]3C[C@H](n4cnc5c(=O)[nH]c(=N)[nH]c54)O[C@@H]3COCO[C@H]3C[C@H](n4cc(C)c(=O)[nH]c4=O)O[C@@H]3COP(=O)(O)O[C@H]3C[C@H](n4cnc5c(=O)[nH]c(=N)[nH]c54)O[C@@H]3COP(=O)(O)O[C@H]3C[C@H](n4cnc5c(=O)nc(N)[nH]c54)O[C@@H]3COP(=O)(O)O[C@H]3C[C@H](n4cc(C)c(=O)[nH]c4=O)O[C@@H]3COP(=O)(O)O[C@H]3C[C@H](n4cc(C)c(=O)[nH]c4=O)O[C@@H]3COP(=O)(O)O[C@H]3C[C@H](n4cnc5c(=O)nc(N)[nH]c54)O[C@@H]3COP(=O)(O)O[C@H]3C[C@H](n4cnc5c(=O)nc(N)[nH]c54)O[C@@H]3COP(=O)(O)O)O2)c(=O)[nH]c1=O	0.7
